Molecular target: T1, HSP-90 (Homo sapiens, UniProt P07900)
T1 construct: fused on or other part: 6-His tag at the C-terminus
Assay: HSP-90 SPA (scintillation proximity assay) competition binding assay, displacement of tritiated propyl-Geldanamycin
Conditions: for inhibition at 1 µM: read-out: % inhibition @ 1 μM; for inhibition at 10 µM: read-out: % inhibition @ 10 μM
Procedure: Compounds of the present invention were evaluated for potency against HSP-90 using a SPA (scintillation proximity assay) competition binding assay. Briefly, either full length or N-terminal HSP-90 that contains a 6-His tag on its C-terminus binds to copper on Yttrium-silicate scintillant beads via the His-tag. Tritiated propyl-Geldanamycin (pGA), whose structure is shown below, is an analog of a natural inhibitor of HSP-90 called Geldanamycin.
Tritiated pGA, which contains a tritiated propyl-amine group added at the #17 position, binds HSP-90 and brings the isotope into proximity with the beads. […] The beta signal emitted from the isotope excites the scintillant, which creates a measurable signal. As competitive compounds are added to the assay mixture, they compete with bound tritiated pGA at the ATP-binding site on the N-terminal of HSP-90. When a compound displaces the labeled pGA, the signal is reduced (the beta-particles are no longer in proximity with the bead). This reduction in signal is used to quantify the extent to which the inhibitor/compound is competitive with pGA.
Typical reaction solutions contained 30 nM HSP-90 and 200 nM ^3H-pGA in binding buffer (100 mM Hepes, pH 7.5 and 150 mM KCl). […] Inhibitors were added to the HSP-90/^3H-pGA solutions at eleven different concentrations for Ki determinations. […] To determine percent inhibition, the compound was tested at 1 and 10 μM. The final DMSO in the samples was 4%. Copper-Ysi beads (Amersham, #RPNQ0096) that have been diluted in binding buffer were added to each well to give a final concentration of 100 μg/well. The plates were sealed, covered with a foil-covered lid and shaken for 30 minutes at room temperature. The beads were allowed to settle for 30 minutes after which the plates were counted using a Packard TopCount NXT instrument. This procedure has also been adapted for medium throughput using a Beckman Biomek FX. Samples were run in duplicate and on two separate days to assure an accurate value of Ki.
For Ki determinations, the corrected cpm's (actual cpm's minus background) were plotted vs. inhibitor concentration using GraphPad Prism software. […] The IC50 was then used to calculate the Ki by using the Cheng-Prusoff equation: […]
This is normally true when the observed IC50 is […] the HSP-90 concentration. For a tight binding inhibitor, the following equation can be applied: […]
EL and ELo are the radioligand-HSP-90 complexes in the presence and absence of inhibitor, respectively. EL/ELo represents the fractional signal in the presence of inhibitor. Io, Eo, and Lo are the inhibitor, HSP-90, and radioligand concentrations, respectively.

SMILES: O=C(c1ccc(O)cc1O)N1CCC(CCc2cccc(Cl)c2)CC1 [Example 48, 4-({4-[2-(3-chlorophenyl)ethyl]piperidin-1-yl}carbonyl)benzene-1,3-diol]
- inhibition at 1 µM: 63.3%
- inhibition at 10 µM: 87.5%

SMILES: O=C(c1ccc(O)cc1O)N1CCC(c2ccccc2)(c2ccccc2)CC1 [Example 54, 4-[(4,4-diphenylpiperidin-1-yl)carbonyl]benzene-1,3-diol]
- inhibition at 1 µM: 50.3%
- inhibition at 10 µM: 85.5%

SMILES: O=C(c1ccc(O)cc1O)N1CCOCC(O)(COC2CCCC2)C1 (centres unmarked) [Example 61, 4-({6-[(cyclopentyloxy)methyl]-6-hydroxy-1,4-oxazepan-4-yl}carbonyl)benzene 1,3-diol]
- inhibition at 1 µM: 37.7%
- inhibition at 10 µM: 75.6%

SMILES: O=C(c1ccc(O)cc1O)N1CCC(c2ccc(F)cc2)C1 (centres unmarked) [Example 95, 4-{[3-(4-fluorophenyl)pyrrolidin-1-yl]carbonyl}benzene-1,3-diol]
- inhibition at 1 µM: 22.7%
- inhibition at 10 µM: 70.3%

SMILES: O=C(c1ccc(O)cc1O)N1CCC(c2ccc(F)cc2)CC1 [Example 70, 4-{[4-(4-fluorophenyl)piperidin-1-yl]carbonyl}benzene-1,3-diol]
- inhibition at 1 µM: 40.2%
- inhibition at 10 µM: 79.1%

SMILES: CN(Cc1ccc(Oc2ccccc2)cc1)C(=O)c1ccc(O)cc1O [Example 107, 2,4-dihydroxy-N-methyl-N-(4-phenoxybenzyl)benzamide]
- inhibition at 1 µM: 51.1%
- inhibition at 10 µM: 83.4%

SMILES: O=C1CC2(CCN(C(=O)c3ccc(O)cc3O)CC2)Oc2ccccc21 [Example 85]
- inhibition at 1 µM: 52.1%
- inhibition at 10 µM: 79.6%

SMILES: O=C(c1ccc(O)cc1O)N1CCOCC2(CC(c3ccccc3)=NO2)C1 (centres unmarked) [Example 130]
- inhibition at 1 µM: 46.2%
- inhibition at 10 µM: 82.4%

SMILES: COCc1nccc(C2CCCN(C(=O)c3ccc(O)cc3O)C2)n1 (centres unmarked) [Example 64, 4-({3-[2-(methoxymethyl)pyrimidin-4-yl]piperidin-1-yl}carbonyl)benzene-1,3-diol]
- inhibition at 1 µM: 5.9%
- inhibition at 10 µM: 59.2%

SMILES: O=C(c1ccc(O)cc1O)N1CCC(c2ccccc2)C1 (centres unmarked) [Example 93, 4-[(3-phenylpyrrolidin-1-yl)carbonyl]benzene-1,3-diol]
- inhibition at 1 µM: 34.5%
- inhibition at 10 µM: 76.1%

SMILES: O=C(c1ccc(O)cc1O)N1CCOC(COc2ccccc2)C1 (centres unmarked) [Example 112, 4-{[2-(phenoxymethyl)morpholin-4-yl]carbonyl}benzene-1,3-diol]
- inhibition at 1 µM: 48.1%
- inhibition at 10 µM: 80.5%

SMILES: Cc1ccccc1C1CCCN1C(=O)c1ccc(O)cc1O (centres unmarked) [Example 73, 4-{[2-(2-methylphenyl)pyrrolidin-1-yl]carbonyl}benzene-1,3-diol]
- inhibition at 1 µM: 82.7%
- inhibition at 10 µM: 91.6%

SMILES: O=C(c1ccc(O)cc1O)N1CCC(Oc2cccc(Cl)c2)CC1 [Example 69, 4-{[4-(3-chlorophenoxy)piperidin-1-yl]carbonyl}benzene-1,3-diol]
- inhibition at 1 µM: 33.9%
- inhibition at 10 µM: 76.6%

SMILES: C[C@@H](c1ccccc1)N(C)C(=O)c1ccc(O)cc1O [Example 66, 2,4-dihydroxy-N-methyl-N-(1-phenylethyl)benzamide]
- inhibition at 1 µM: 55.5%
- inhibition at 10 µM: 84.8%

SMILES: O=C(c1ccc(O)cc1O)N1CCC(CCc2cnccn2)CC1 [Example 47, 4-{[4-(2-pyrazin-2-ylethyl)piperidin-1-yl]carbonyl}benzene-1,3-diol]
- inhibition at 1 µM: 43.4%
- inhibition at 10 µM: 80%

SMILES: O=C(c1cc(-c2ccncn2)ccc1O)N1Cc2ccccc2C1 [Example 32, 2-(1,3-dihydro-2H-isoindol-2-ylcarbonyl)-4-pyrimidin-4-ylphenyl]
- inhibition at 1 µM: -11.9%
- inhibition at 10 µM: 14.2%

SMILES: O=C(c1ccc(O)cc1O)N1CCC(c2cccc(Cl)c2)C1 (centres unmarked) [Example 96, 4-{[3-(3-chlorophenyl)pyrrolidin-1-yl]carbonyl}benzene-1,3-diol]
- inhibition at 1 µM: 20.8%
- inhibition at 10 µM: 67.6%

SMILES: O=C(c1ccc(O)cc1O)N1CCOC(COc2cccc(Cl)c2)C1 (centres unmarked) [Example 110, 4-({2-[(3-chlorophenoxy)methyl]morpholin-4-yl}carbonyl)benzene-1,3-diol]
- inhibition at 1 µM: 55.3%
- inhibition at 10 µM: 82.8%

SMILES: O=C(c1ccc(O)cc1O)N1CCC(O)(c2ccc(Cl)cc2)CC1 [Example 76, 4-{[4-(4-chlorophenyl)-4-hydroxypiperidin-1-yl]carbonyl}benzene-1,3-diol]
- inhibition at 1 µM: 48.4%
- inhibition at 10 µM: 81%

SMILES: O=C(c1cc2ccccc2cc1O)N1Cc2ccccc2C1 [Example 24, 3-(1,3-dihydro-2H-isoindol-2-ylcarbonyl)-2-naphthol]
- inhibition at 1 µM: 5.4%
- inhibition at 10 µM: 34.9%

SMILES: CCc1nc(COCC2CCN(C(=O)c3ccc(O)cc3O)C2)no1 (centres unmarked) [Example 58, 4-[(3-{[(5-ethyl-1,2,4-oxadiazol-3-yl)methoxy]methyl}pyrrolidin-1-yl)carbonyl]benzene 1,3-diol]
- inhibition at 1 µM: 29.3%
- inhibition at 10 µM: 72.5%

SMILES: O=C(c1ccc(O)cc1O)N1CCc2ccccc2C1 [Example 109, 4-(3,4-dihydroisoquinolin-2(1H)-ylcarbonyl)benzene-1,3-diol]
- inhibition at 1 µM: 68%
- inhibition at 10 µM: 87.2%

SMILES: CN(Cc1nnc(-c2ccc(F)cc2)o1)C(=O)c1ccc(O)cc1O [Example 119, N-{[5-(4-fluorophenyl)-1,3,4-oxadiazol-2-yl]methyl}-2,4-dihydroxy-N-benzamide]
- inhibition at 1 µM: 50.9%
- inhibition at 10 µM: 82.8%

SMILES: CC(C)(C)CC1CCCCN1C(=O)c1ccc(O)cc1O (centres unmarked) [Example 41, 4-{[2-(2,2-dimethylpropyl)piperidin-1-yl]carbonyl}benzene-1,3-diol]
- inhibition at 1 µM: 64.8%
- inhibition at 10 µM: 86.8%

SMILES: CN(Cc1nnc(-c2cccc(C#N)c2)o1)C(=O)c1ccc(O)cc1O [Example 121, N-{[5-(3-cyanophenyl)-1,3,4-oxadiazol-2-yl]methyl}-2,4-dihydroxy-N-methylbenzamide]
- inhibition at 1 µM: 10.6%
- inhibition at 10 µM: 64.6%

SMILES: CN(Cc1nc2ccccc2o1)C(=O)c1ccc(O)cc1O [Example 123, N-(1,3-benzoxazol-2-ylmethyl)-2,4-dihydroxy-N-methylbenzamide]
- inhibition at 1 µM: 25.5%
- inhibition at 10 µM: 65.6%

SMILES: O=C(c1ccc(O)cc1O)N1CCOC[C@@H]1c1ccccc1 [Example 135, 4-[(3-phenylmorpholin-4-yl)carbonyl]benzene-1,3-diol]
- inhibition at 1 µM: 15.9%
- inhibition at 10 µM: 44.7%

SMILES: O=C(c1ccc(O)cc1O)N1CCC(CCc2cncnc2)CC1 [Example 50, 4-{[4-(2-pyrimidin-5-ylethyl)piperidin-1-yl]carbonyl}benzene-1,3-diol]
- inhibition at 1 µM: 34.6%
- inhibition at 10 µM: 77.7%

SMILES: O=C(c1cc(-c2ccc(F)cc2F)ccc1O)N1Cc2ccccc2C1 [Example 28, 3-(1,3-dihydro-2H-isoindol-2-ylcarbonyl)-2′,4′-difluorobiphenyl-4-ol]
- inhibition at 1 µM: 50.8%
- inhibition at 10 µM: 76.2%

SMILES: COc1cc(C2=NOC3(COCCN(C(=O)c4ccc(O)cc4O)C3)C2)ccc1F (centres unmarked) [Example 129, 4-{[3-(4-fluoro-3-methoxyphenyl)-1,7-dioxa-2,10-diazaspiro[4.6]undec-2-en-10-yl]carbonyl}benzene-1,3-diol]
- inhibition at 1 µM: 60.5%
- inhibition at 10 µM: 88.5%

SMILES: O=C(c1ccc(O)cc1O)N1CCOCC2(CC(c3c(F)cccc3F)=NO2)C1 (centres unmarked) [Example 131, 4-{[3-(2,6-difluorophenyl)-1,7-dioxa-2,10-diazaspiro[4.6]undec-2-en-10-yl]carbonyl}benzene-1,3-diol]
- inhibition at 1 µM: 24.7%
- inhibition at 10 µM: 69.6%

— patent publication US20090215742A1, “AMIDE […]” (PFIZER, INC., priority 2005, published 2009)
